Where only a bound is given, the exact number is not on record here.

For this assay, the target named is T1, Active human recombinant ROCK II (N-terminal His6-tagged recombinant human ROCK-II residues 11-552) (Homo sapiens, UniProt O75116).
T1 construct: recombinant human ROCK-II residues 11-552; His6 (N); purchased Upstate Ltd., Dundee, UK
Briefly: Determination of Rho-kinase activity (Rho-kinase inhibition, Caliper peptide phosphorylation assay). Type of assay: biochemical. To be noted: Fluorescein-AKRRRLSSLRA-COOH peptide substrate and ATP, 60 min incubation at 32° C., tested as the form (salt or free base) obtained in the examples, read-out: pIC50 (negative decadal logarithm of the IC50), Rho-kinase inhibition (converted). As to the method:
Determination of Rho-Kinase Activity
To measure Rho-kinase inhibition, IC50 values were determined according to the following protocol:
Active human recombinant ROCK II (N-terminal His6-tagged recombinant human ROCK-II residues 11-552) was purchased from Upstate Ltd., Dundee, UK. The peptide substrate, Fluorescein-AKRRRLSSLRA-COOH, was obtained from JPT Peptide Technologies, Berlin, Germany. Adenosine-5′-triphosphate (ATP), bovine serum albumine (BSA), dimethylsulphoxide (DMSO), 4-(2-Hydroxyethyl)piperazine-1-ethanesulfonic acid (Hepes), Brij-35 and dithiothreitol (DTT) were purchased from Sigma-Aldrich, Munich, Germany. Tris(hydroxymethyl)-aminomethane (Tris), magnesium chloride, NaOH, 1M HCl and EDTA were obtained from Merck Biosciences, Darmstadt, Germany. “Complete” protease inhibitor was from Roche Diagnostics, Mannheim, Germany.
Test compounds were diluted to the appropriate concentrations in buffer 1 (25 mM Tris-HCl, pH 7.4, 5 mM MgCl2, 2 mM DTT, 0.02% (w/v) BSA and 3% DMSO). The ROCK II enzyme was diluted to a concentration of 100 ng/ml in buffer 2 (25 mM Tris-HCl, pH 7.4, 5 mM MgCl2, 2 mM DTT and 0.02% (w/v) BSA). The peptide substrate and ATP were diluted to concentrations of 3 μM and 120 μM, respectively, in the buffer 2. Two μl of the compound solution were mixed with 2 μl of the diluted enzyme in a 384-well small volume microtiter plate (Greiner, Bio-One, Frickenhausen, Germany), and the kinase reaction was initiated by addition of 2 μl of the solution containing peptide substrate and ATP. After 60 min incubation at 32° C., the reaction was stopped by addition of 20 μl of a solution containing 100 mM Hepes-NaOH, pH 7.4, 0.015% (v/v) Brij-35, 45 mM EDTA and 0.227% chip coating reagent 1 (Caliper Lifescience Inc, Hopkinton, Mass.). Phosphorylation of the substrate peptide was then detected on a Caliper 3000 instrument essentially as described by Pommereau et al (J. Biomol. Screening 9(5), 409-416, 2004). Separation conditions were as follows: Pressure −1.3 psi, upstream voltage −1562 V, downstream voltage −500 V, sample sip time 200 ms. Positive controls (buffer 1 instead of compound) and negative controls (buffer 1 instead of compound and buffer 2 instead of ROCK II) were run in parallel on each plate.
The following products/compounds were tested in said assay by using the respective form (salt or free base) obtained as in the examples described above and the following activities were measured.

T1 sequence (O75116 11-552): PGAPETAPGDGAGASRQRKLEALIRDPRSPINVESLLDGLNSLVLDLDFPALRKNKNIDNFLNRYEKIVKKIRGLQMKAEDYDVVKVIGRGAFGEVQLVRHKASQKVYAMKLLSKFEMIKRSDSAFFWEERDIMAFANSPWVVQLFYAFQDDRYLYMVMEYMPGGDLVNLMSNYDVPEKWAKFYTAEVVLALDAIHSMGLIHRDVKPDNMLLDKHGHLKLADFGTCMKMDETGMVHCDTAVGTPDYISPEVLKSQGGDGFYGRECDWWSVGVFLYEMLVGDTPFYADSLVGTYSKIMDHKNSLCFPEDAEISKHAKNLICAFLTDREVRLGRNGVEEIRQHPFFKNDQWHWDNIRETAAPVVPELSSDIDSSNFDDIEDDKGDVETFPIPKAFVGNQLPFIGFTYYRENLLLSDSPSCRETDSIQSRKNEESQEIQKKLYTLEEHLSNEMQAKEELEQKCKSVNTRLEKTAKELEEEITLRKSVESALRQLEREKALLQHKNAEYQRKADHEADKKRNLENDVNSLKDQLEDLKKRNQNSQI

In the case of `O=C(NCCc1ccccc1)[C@@H]1C[C@@H](Oc2ccc3cnccc3c2)CCN1` [Compound 21, (2S,4S)-4-(Isoquinolin-6-yloxy)-piperidine-2-carboxylic acid phenethyl-amide], the IC50 (usually the midpoint of a concentration-inhibition curve) was 1000 to 10000 nM.

As to `COCCNC(=O)[C@H]1CNC[C@@H]1Nc1ccc2cnccc2c1` [Compound 49, (3S,4R)-4-(Isoquinolin-6-ylamino)-pyrrolidine-3-carboxylic acid (2-methoxy-ethyl)-amide], the IC50 was 1000 to 10000 nM.

For `COc1cccc(CNC(=O)[C@H]2CNC[C@@H]2Nc2ccc3cnccc3c2)c1` [Compound 48, (3S,4R)-4-(Isoquinolin-6-ylamino)-pyrrolidine-3-carboxylic acid 3-methoxy-benzylamide], the IC50 was at most 1000 nM.

Take `O=c1[nH]ccc2cc(OC3(c4ccccc4)CCN(Cc4ccccc4)CC3)c(Cl)cc12` [Compound 69, 6-(1-Benzyl-4-phenyl-piperidin-4-yloxy)-7-chloro-2H-isoquinolin-1-one]: the IC50 was 1000 to 10000 nM.

Regarding `O=C(NCCO)[C@@H]1C[C@@H](Oc2ccc3cnccc3c2)CN1` [Compound 27, (2S,4R)-4-(Isoquinolin-6-yloxy)-pyrrolidine-2-carboxylic acid (2-hydroxy-ethyl)-amide], the IC50 is 1000 to 10000 nM.

Consider `Cc1ccccc1NC(=O)[C@H]1CNC[C@@H]1Nc1ccc2cnccc2c1` [Compound 50, (3S,4R)-4-(Isoquinolin-6-ylamino)-pyrrolidine-3-carboxylic acid o-tolylamide], for which the half-inhibitory concentration (IC50) is at most 1000 nM.

Regarding `O=C(NCCc1ccccc1)[C@@H]1C[C@H](Nc2ccc3cnccc3c2)CN1` [Compound 45, (2S,4S)-4-(Isoquinolin-6-ylamino)-pyrrolidine-2-carboxylic acid phenethyl-amide], the IC50 was at most 1000 nM.

As for `CN1[C@@H]2CC[C@H]1C[C@@H](Oc1cc3cc[nH]c(=O)c3cc1Cl)C2` [Compound 75, 7-Chloro-6-(8-methyl-8-aza-bicyclo[3.2.1]oct-3-yloxy)-2H-isoquinolin-1-one], the IC50 is at most 1000 nM.

Take `C#CCNC(=O)[C@@H]1C[C@@H](Oc2ccc3cnccc3c2)CN1` [Compound 31, (2S,4R)-4-(Isoquinolin-6-yloxy)-pyrrolidine-2-carboxylic acid prop-2-ynylamide]: the IC50 was at most 1000 nM.

With `Cc1cc2c(=O)[nH]ccc2cc1O[C@H]1C[C@H]2CC[C@@H](C1)N2C` [Compound 76, 7-Methyl-6-(8-methyl-8-aza-bicyclo[3.2.1]oct-3-yloxy)-2H-isoquinolin-1-one], the IC50 is at most 1000 nM.

As to `O=C(NCc1ccccc1Cl)[C@@H]1C[C@@H](Oc2ccc3cnccc3c2)CCN1` [Compound 22, (2S,4S)-4-(Isoquinolin-6-yloxy)-piperidine-2-carboxylic acid 2-chloro-benzylamide], the IC50 is at most 1000 nM.

With `O=C(NCc1ccco1)[C@@H]1C[C@H](Nc2ccc3cnccc3c2)CN1` [Compound 41, (2S,4S)-4-(Isoquinolin-6-ylamino)-pyrrolidine-2-carboxylic acid (furan-2-ylmethyl)-amide], the concentration for half-maximal inhibition (IC50) was 1000 to 10000 nM.

The record behind these values is US8772492B2, “Substituted isoquinoline and isoquinolinone derivatives” (Sanofi, priority 2006, dated 2014).
